Laboratory results from patent US10130633B2, “Compounds” (BAYER PHARMA AKTIENGESELLSCHAFT, priority 2013, dated 2018).

Assays:
[1] = system: constitutive active colorectal cancer cell (CRC) Wnt pathway; test: HCT116 TOPFlash cellular reporter assay (Super TopFlash luciferase), constitutive active Wnt pathway; format: cell-based; conditions: HCT116 TOP reporter cells, 36 hours incubation, luciferase expression
Protocol: In order to discover and characterize small molecules which inhibit the constitutive active colorectal cancer cell (CRC) Wnt pathway, a cellular reporter assay was employed. […] Stable transfectants were generated by cotransfection with pcDNA3 and selection of stable transfected cells with 1 mg/ml G418.

[2] = system: HCT116 FOP control reporter cell line; test: HCT116 FOPFlash control reporter assay (FOP control vector, non-functional TCF elements); format: cell-based; conditions: HCT116 FOP control reporter cells, 36 hours incubation, luciferase expression
Source text: In a parallel approach, HCT116 cells were cotransfected with the FOP control vector and pcDNA3. The FOP vector is identical to the TOP construct, but it contains instead of functional TCF elements a randomized, non-functional sequence. For this transfection a stable transfected cell line was generated as well.

Row | IC50 ([1]; Homo sapiens, HCT-116, 36 h) | IC50 ([2]; Homo sapiens, HCT-116, 36 h) | IC50 [1] | IC50 [2] | SMILES
1 | 4340 nM | ≥ 50000 nM |  |  | O=C(CN1C[C@@H]2C[C@H]1CO2)Nc1cc(C(=O)Nc2nnc(-c3ccccc3)s2)ccc1OC(F)(F)F [Example 254, 3-{[(1S,4S)-2-oxa-5-azabicyclo[2.2.1]hept-5-ylacetyl]amino}-N-(5-phenyl-1,3,4-thiadiazol-2-yl)-4-(trifluoromethoxy)benzamide]
2 | 365 nM | ≥ 50000 nM |  |  | COc1cccc(-c2nnc(NC(=O)c3ccc(OC(F)(F)F)c(NC(=O)CN4CCN(C)CC4)c3)s2)c1 [Example 146, N-[5-(3-methoxyphenyl)-1,3,4-thiadiazol-2-yl]-3-{[(4-methylpiperazin-1-yl)acetyl]amino}-4-(trifluoromethoxy)benzamide]
3 | 1220 nM | ≥ 50000 nM |  |  | COc1ccc(NC(=O)c2ccc(-c3ccccc3)nc2)cc1NC(=O)CN1CCOCC1 [Example 34, N-{4-methoxy-3-[(morpholin-4-ylacetyl)amino]phenyl}-6-phenylnicotinamide]
4 | 2300 nM | ≥ 50000 nM |  |  | COc1ccc(NC(=O)c2ccc(-c3ccc(F)cc3)nc2)cc1NC(=O)CN1CCOCC1 [Example 229, 6-(4-fluorophenyl)-N-{4-methoxy-3-[(morpholin-4-ylacetyl)amino]phenyl} nicotinamide]
5 |  |  | 237 nM | 11200 nM | CC(C(=O)Nc1cc(C(=O)Nc2ccc(-c3ccccc3F)nc2)ccc1C(F)(F)F)N1CCOCC1 (centres unmarked) [Example 225, N-[6-(2-fluorophenyl)pyridin-3-yl]-3-{[2-(morpholin-4-yl)propanoyl]amino}-4-(trifluoromethyl)benzamide]
6 | 209 nM | ≥ 50000 nM |  |  | COc1ccc(NC(=O)c2cnc(-c3ccccc3)s2)cc1NC(=O)C(C)N1CCOCC1 (centres unmarked) [Example 107, N-(4-methoxy-3-{[2-(morpholin-4-yl)propanoyl]amino}phenyl)-2-phenyl-1,3-thiazole-5-carboxamide]
7 | 325 nM | 10000 nM |  |  | C[C@@H]1CN(C)CCN1CC(=O)Nc1cc(C(=O)Nc2ccc(-c3ccccc3F)nc2)ccc1OC(F)(F)F [Example 161, 3-({[(2R)-2,4-dimethylpiperazin-1-yl]acetyl}amino)-N-[6-(2-fluorophenyl)pyridin-3-yl]-4-(trifluoromethoxy)benzamide]
8 | 560 nM | ≥ 50000 nM |  |  | Cn1nc(C(=O)Nc2ccc(OC(F)(F)F)c(NC(=O)CN3CCOCC3)c2)cc1-c1ccccc1 [Example 123, 1-methyl-N-{3-[(morpholin-4-ylacetyl)amino]-4-(trifluoromethoxy)phenyl}-5-phenyl-1H-pyrazole-3-carboxamide]
9 | 680 nM | ≥ 50000 nM |  |  | O=C(Cn1cccn1)Nc1cc(C(=O)Nc2ccc(-c3ccccc3F)nc2)ccc1OC1CC1 [Example 141, 4-(cyclopropyloxy)-N-[6-(2-fluorophenyl)pyridin-3-yl]-3-[(1H-pyrazol-1-ylacetyl)amino]benzamide]
10 | 3200 nM | ≥ 50000 nM |  |  | COc1ccccc1-c1nnc(NC(=O)c2ccc(OC(F)(F)F)c(NC(=O)CN3CCN(C)CC3)c2)s1 [Example 101, N-[5-(2-methoxyphenyl)-1,3,4-thiadiazol-2-yl]-3-{[(4-methylpiperazin-1-yl)acetyl]amino}-4-(trifluoromethoxy)benzamide]
11 | 175 nM |  |  | 42000 nM | CC(C(=O)Nc1cc(NC(=O)c2ccc(-c3cc(F)cc(F)c3)nc2)ccc1OC(F)(F)F)N1CCOCC1 (centres unmarked) [Example 187, 6-(3,5-difluorophenyl)-N-[3-{[2-(morpholin-4-yl)propanoyl]amino}-4-(trifluoromethoxy)phenyl] nicotinamide]
12 | 318 nM | ≥ 50000 nM |  |  | COc1ccc(NC(=O)c2nnc(-c3ccccc3)s2)cc1NC(=O)CN1CCOCC1 [Example 130, N-{4-methoxy-3-[(morpholin-4-ylacetyl)amino]phenyl}-5-phenyl-1,3,4-thiadiazole-2-carboxamide]
13 | 245 nM | 10200 nM |  |  | O=C(CN1CCN(C2CC2)CC1)Nc1cc(C(=O)Nc2ccc(-c3ccccc3F)nc2)ccc1C(F)(F)F [Example 227, 3-{[(4-cyclopropylpiperazin-1-yl)acetyl]amino}-N-[6-(2-fluorophenyl)pyridin-3-yl]-4-(trifluoromethyl)benzamide]
14 | 102 nM | ≥ 50000 nM |  |  | CN1CCN(C2(C(=O)Nc3cc(C(=O)Nc4nnc(-c5ccccc5)s4)ccc3OC3CC3)CC2)CC1 [Example 171, 4-(cyclopropyloxy)-3-({[1-(4-methylpiperazin-1-yl)cyclopropyl]carbonyl}amino)-N-(5-phenyl-1,3,4-thiadiazol-2-yl)benzamide]
15 | 85.5 nM | ≥ 50000 nM |  |  | C[C@H]1CN(C)CCN1CC(=O)Nc1cc(C(=O)Nc2ccc(-c3ccccc3F)nc2)ccc1OC(F)(F)F [Example 162, 3-({[(2S)-2,4-dimethylpiperazin-1-yl]acetyl}amino)-N-[6-(2-fluorophenyl)pyridin-3-yl]-4-(trifluoromethoxy)benzamide]
16 |  |  | 140 nM | ≥ 50000 nM | CC(C(=O)Nc1cc(NC(=O)c2ccc(-c3ccccc3F)nc2)ccc1OC(F)(F)F)N1CCOCC1 (centres unmarked) [Example 213, 6-(2-fluorophenyl)-N-[3-{[2-(morpholin-4-yl)propanoyl]amino}-4-(trifluoromethoxy)phenyl] nicotinamide]
17 | 272 nM | 20000 nM |  |  | CC1CN(CC(=O)Nc2cc(C(=O)Nc3ccc(-c4ccccc4F)nc3)ccc2OC(F)(F)F)CCN1C (centres unmarked) [Example 137, 3-{[(3,4-dimethylpiperazin-1-yl)acetyl]amino}-N-[6-(2-fluorophenyl)pyridin-3-yl]-4-(trifluoromethoxy)benzamide]
18 | 685 nM | ≥ 50000 nM |  |  | CC1CN(C)CCN1CC(=O)Nc1cc(C(=O)Nc2nnc(-c3ccccc3)s2)ccc1OC(F)(F)F (centres unmarked) [Example 167, 3-{[(2,4-dimethylpiperazin-1-yl)acetyl]amino}-N-(5-phenyl-1,3,4-thiadiazol-2-yl)-4-(trifluoromethoxy)benzamide]
19 | 51 nM | 7200 nM |  |  | CC1CN(C)CCN1CC(=O)Nc1cc(C(=O)Nc2ccc(-c3ccccc3F)nc2)ccc1OC(F)(F)F (centres unmarked) [Example 165, 3-{[(2,4-dimethylpiperazin-1-yl)acetyl]amino}-N-[6-(2-fluorophenyl)pyridin-3-yl]-4-(trifluoromethoxy)benzamide]
20 | 135 nM | 12400 nM |  |  | CC(C(=O)Nc1cc(C(=O)Nc2ccc(-c3cccc(F)c3)nc2)ccc1OC(F)(F)F)N1C[C@@H]2C[C@H]1CO2 (stereo partly drawn) [Example 192, N-[6-(3-fluorophenyl)pyridin-3-yl]-3-({2-[(1S,4S)-2-oxa-5-azabicyclo[2.2.1]hept-5-yl]propanoyl}amino)-4-(trifluoromethoxy)benzamide]
21 |  |  | 53 nM | ≥ 50000 nM | CC(C(=O)Nc1cc(C(=O)Nc2ccc(-c3cc(F)cc(F)c3)nc2)ccc1OC(F)(F)F)N1C[C@@H]2C[C@H]1CO2 (relative stereo) [Example 181, N-[6-(3,5-difluorophenyl)pyridin-3-yl]-3-({(2S*)-2-[(1S,4S)-2-oxa-5-azabicyclo[2.2.1]hept-5-yl]propanoyl}amino)-4-(trifluoromethoxy)benzamide]
22 | 855 nM | ≥ 50000 nM |  |  | CCN1CCN(CC(=O)Nc2cc(C(=O)Nc3nnc(-c4ccccc4)s3)ccc2OC(F)(F)F)CC1 [Example 172, 3-{[(4-ethylpiperazin-1-yl)acetyl]amino}-N-(5-phenyl-1,3,4-thiadiazol-2-yl)-4-(trifluoromethoxy)benzamide]
